# Patent US6517856B1, “Insecticide resistance assay” (priority 1998, dated 2003)
# Test system: H. zea
# Assay: Modified feeding disruption bioassay on MVP-hydrated meal pads, field strains
# Assay type: in vivo, Helicoverpa zea
# Experimental: Trypan Blue (Direct Blue 14; Matheson Coleman and Bell, Norwood, Ohio) was blended with artificial diet, 20 mg dye per 100 ml diet. Blue diet aliquots were dispensed (100 μl per well) into 8-well microtiter plate strips (Nalge Nunc Int., Napersville, Ill.). The blue dye served as a marker of feeding on the assay diet, with larvae feeding on colored diet producing blue feces which were easily distinguished visually from feces derived from other food sources. Microtiter plate strips containing blue diet were frozen at −80° C. and lyophilized (Bench Top 6, Virtis, Gardiner, N.Y.; cold trap=−70° C., ˜200 mTorr, ambient temperature=23° C.) for a minimum of 24 h in order to form hydratable meal pads. Meal pads were stored in the dark in sealed plastic bags with desiccant prior to use.
# Meal pads were hydrated with aqueous dilutions of the B. thuringiensis CryIAc δ-endotoxin formulation MVP (Mycogen, San Diego, Calif.) at least 1 h prior to the start of assays. Fresh diet aliquots (100 μl) consistently lost 78-84% of their water content by weight during the lyophilization process. Therefore, meal pads were hydrated with 80 μl of MVP in distilled water (treatments) or distilled water only (controls). The insecticide concentrations referenced throughout this paper are in μg MVP per ml of diet, i.e. the final concentration of insecticide in hydrated diet, which is 80% of the concentration of the solution used to hydrate the meal pads. Strip caps (Nunc) were cut into single caps in order to seal wells of the microtiter plate strips individually, which facilitated observation within wells while not allowing neighboring larvae to escape. In order to reduce condensation within the wells and provide larvae with air, caps were punctured twice with a #3 insect pin. Bioassays were conducted at 27±1° C. with a 14:10 (L:D) cycle, and blue fecal pellets were counted at 24 h. Neonates were used in all assays and were exposed to assay diets within 24 h of hatch. The results from each assay are taken from two replicates of each dose, with each replicate consisting of 24 larvae, one larva per well. Control (no dose) treatments were replicated three times. Dead larvae (defined as no movement for 30 s after prodding with a blunt probe) at the assay endpoint (24 h) were discarded and not included in the reported results. For each surviving larva, the number of fecal pellets produced was recorded. Serial dilutions of the MVP formulation were used for meal pad hydration, with separate dilution series prepared for each replicate.
# Following 24 h exposure to diet containing a known concentration of MVP (Mycogen), a surviving larva was designated as a ‘feeder’ if it had produced more than two fecal pellets and as a ‘non-feeder’ otherwise. The cut-off value of two fecal pellets was adopted because this provided the clearest separation between species. Probit analyses were applied to the dichotomized fecal pellet counts in order to compare strains, between and within species, with respect to the feeding disruption response. A probit model was then used to relate the proportion of non-feeders to dose (on a log10 scale). Probit curves were fitted separately for each insect strain, and a NFC50 (non-feeding concentration50; log10 of the MVP concentration resulting in 50% non-feeders) and slope was obtained for H. zea. Also, probit curves were compared across species and among strains within species using PROC GENMOD with LINK=PROBIT (SAS 1993) on the data for all strains combined, and fitting effects for species, strains within species, log10 dose, as well as dose by species and dose by strain within species interactions.
# Probit estimates of the proportion of feeders at the diagnostic concentration for each strain were used to predict the properties of an assay involving exposure of a small number, n, of larvae in individual wells for 24 h to diet containing a diagnostic concentration of the MVP formulation (final MVP concentration in diet 0.04 μg/ml). […]
substance,measurement,setting,value
"CryIAc: Bacillus thuringiensis CryIAc δ-endotoxin, commercial formulation MVP (Mycogen), >98.0% δ endotoxin","pr, probability of a larva being a feeder, most conservative probit estimate","H. zea strains, diagnostic concentration 0.04 μg/ml, 24 h",0.80
same,non-feeding response (0-2 fecal pellets),"Hz Alachua neonates, 1200 μg MVP per ml diet, 24 h",87.2%
same,feeding response (>2 fecal pellets),"Hz Alachua, 0.04 μg MVP per ml diet, 24 h",100%
same,percentage of neonates remaining feeders (>2 fecal pellets per larva),"Hz Alachua, 1200 μg MVP per ml diet, 24 h",12.8%
same,percentage producing 0-2 fecal pellets over 24 h,"Hz Baldwin neonates, 400 μg MVP per ml diet",97.7%
same,non-feeding response (0-2 fecal pellets),"Hz Barnwell neonates, 1200 μg MVP per ml diet, 24 h",100%
same,feeding response (>2 fecal pellets),"Hz Barnwell, 0.04 μg MVP per ml diet, 24 h",100%
same,percentage producing 0-2 fecal pellets over 24 h,"Hz Harmon neonates, 400 μg MVP per ml diet",89.5%
same,"pr, feeding probability","Hz Irwin (south Georgia), 0.04 μg MVP per ml diet, 24 h",0.98
same,non-feeding response (0-2 fecal pellets),"Hz Nueces neonates, 1200 μg MVP per ml diet, 24 h",100%
same,percentage producing 0-2 fecal pellets over 24 h,"Hz Washington neonates, 400 μg MVP per ml diet",97.6%
same,feeding response (>2 fecal pellets),"Hz Washington, 0.04 μg MVP per ml diet, 24 h",80.4%
same,percentage of larvae producing >6 fecal pellets,"all H. zea larvae assayed, 1200 μg MVP per ml diet, 24 h",< 1%
same,percentage producing >15 fecal pellets,"each of Hz Alachua, Hz Barnwell, Hz Baldwin, 0.04 μg MVP per ml diet, 24 h",> 90%
same,percentage non-feeders,"each of three other H. zea field strains, 400 μg MVP per ml diet, 24 h",Less than 88.0%
same,non-feeding response,"three of the six H. zea susceptible field strains, 400 μg MVP per ml hydrated diet",> 89%
